Among the data in ChEMBL document CHEMBL5214972, “Design and evaluation of novel analogs of 2-amino-4-boronobutanoic acid (ABBA) as inhibitors of human gamma-glutamyl transpeptidase” (Bioorg Med Chem, 2022) are Ki values, retold here.

Broadly, the Ki is the equilibrium dissociation constant of an inhibitor or competing ligand from its target.

Experiment [1] concerns the target T1, Glutathione hydrolase 1 proenzyme (Homo sapiens, UniProt P19440). The experiment can be described thus: Inhibition of human GGT1 expressed in Pichia pastoris assessed as inhibition of GSH hydrolysis measured by L-glutamate release assay.
The target in experiment [2] is T1, Glutathione hydrolase 1 proenzyme. Put plainly: Inhibition of human GGT1 transpeptidation in Pichia pastoris using L-GpNA as substrate in presence of Gly-Gly.
Experiment [3] is described as follows: Inhibition of bovine GGT1 transpeptidation using gamma-glutamyl-p-nitroanilide in presence of Gly-Gly. Details: species or system Bos taurus.

T1 sequence (P19440 1-380 limits assumed): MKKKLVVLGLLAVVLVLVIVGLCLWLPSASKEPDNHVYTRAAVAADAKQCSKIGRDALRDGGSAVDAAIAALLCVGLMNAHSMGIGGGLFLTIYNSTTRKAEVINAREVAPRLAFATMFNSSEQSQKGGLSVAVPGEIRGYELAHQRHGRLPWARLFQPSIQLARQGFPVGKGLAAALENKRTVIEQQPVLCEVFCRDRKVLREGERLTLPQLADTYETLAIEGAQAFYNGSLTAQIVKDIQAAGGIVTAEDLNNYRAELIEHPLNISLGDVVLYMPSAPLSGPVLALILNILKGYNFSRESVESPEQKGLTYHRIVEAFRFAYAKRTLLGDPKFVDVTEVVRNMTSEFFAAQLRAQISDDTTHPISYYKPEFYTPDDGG
T1 sequence (P19440 381-569 limits assumed): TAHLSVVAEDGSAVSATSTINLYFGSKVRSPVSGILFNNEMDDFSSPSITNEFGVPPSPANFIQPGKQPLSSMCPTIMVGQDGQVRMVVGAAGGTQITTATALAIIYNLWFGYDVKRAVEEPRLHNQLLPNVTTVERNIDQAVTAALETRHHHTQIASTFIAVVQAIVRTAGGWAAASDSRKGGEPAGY

Consider `O=C(O)[C@@H](CCB(O)O)NCCCc1ccccc1`, for which the results for the Ki in experiment [1] and in experiment [2] were 108 µM and 49 µM, respectively. `COc1ccc(CN[C@H](CCB(O)O)C(=O)O)cc1`: the Ki in experiment [2] came out at 343 µM. Turning to `N[C@@H](CCB(O)O)C(=O)O`, the inhibition constant Ki in experiment [1] is 0.025 µM; in experiment [2], 0.0054 µM; in experiment [3] it was 0.017 µM. Take `C[C@@H](N)CN[C@H](CCB(O)O)C(=O)O`: the Ki in experiment [1] was greater than 1000 µM; in experiment [2], 254 µM. For `O=C(O)[C@@H](CCB(O)O)NCc1ccccc1`, in that order: 2150 µM and 202 µM. For the compound `N[C@H](CN[C@H](CCB(O)O)C(=O)O)Cc1ccccc1`, in experiment [2], the Ki stood at 61 µM. Regarding `NCCN[C@H](CCB(O)O)C(=O)O`, the Ki worked out at 260 µM in experiment [1] and 46 µM in experiment [2]. On to `O=C(O)c1cccc(CN[C@H](CCB(O)O)C(=O)O)c1`, for which the Ki in experiment [2] was found to be 589 µM. As for `O=C(O)[C@@H](CCB(O)O)NCCc1ccccc1`, the Ki came to 356 µM in experiment [1] and 220 µM in experiment [2]. In the same order, the values of `N[C@H](CCB(O)O)C(=O)O` are 0.077 µM and 0.045 µM.

On to `O=C(O)[C@@H](CCB(O)O)NCc1ccc(S(=O)(=O)Nc2ccccc2)cc1`, for which, in experiment [2], the inhibition constant Ki was 173 µM. Take `N[C@@H](CN[C@H](CCB(O)O)C(=O)O)Cc1ccccc1`: the values for the Ki in experiment [1] and in experiment [2] were 508 µM and 88 µM, respectively. In the same order, the values of `O=C(O)[C@@H](CCB(O)O)NCc1c[nH]cn1` are 87 µM and 26 µM.
